Laboratory results as given in the NIST ThermoML archive (doi:10.1016/j.fluid.2005.07.017).
Numbers after ± are expanded uncertainties.

Assay: xn = mol fraction of the nth substance listed
Settings: Liquid, Vibrating tube method

c1ccsc1 [thiophene] + O=C=O
Settings | mass density [kg/m3]
342.91 K, 11019 kPa, x2 = 0.3818 | 967.88 ± 0.43
342.91 K, 11995 kPa, x2 = 0.3818 | 969.76 ± 0.43
342.91 K, 12980 kPa, x2 = 0.3818 | 971.64 ± 0.43
342.91 K, 14033 kPa, x2 = 0.3818 | 973.6 ± 0.43
342.91 K, 15024 kPa, x2 = 0.3818 | 975.41 ± 0.43
342.91 K, 15980 kPa, x2 = 0.3818 | 977.13 ± 0.43
342.91 K, 17026 kPa, x2 = 0.3818 | 978.96 ± 0.43
342.91 K, 18022 kPa, x2 = 0.3818 | 980.7 ± 0.43
342.91 K, 19019 kPa, x2 = 0.3818 | 982.41 ± 0.42
343.15 K, 101 kPa, x2 = 0 | 1002.15 ± 0.44
352.59 K, 4979 kPa, x2 = 0.199 | 974.07 ± 0.43
352.59 K, 5990 kPa, x2 = 0.199 | 975.64 ± 0.43
352.59 K, 7029 kPa, x2 = 0.199 | 977.28 ± 0.43
352.59 K, 8024 kPa, x2 = 0.199 | 978.8 ± 0.43
352.59 K, 9035 kPa, x2 = 0.199 | 980.29 ± 0.43
352.59 K, 9983 kPa, x2 = 0.199 | 981.7 ± 0.43
352.59 K, 11018 kPa, x2 = 0.199 | 983.2 ± 0.43
352.59 K, 12014 kPa, x2 = 0.199 | 984.65 ± 0.43
352.59 K, 13125 kPa, x2 = 0.199 | 986.24 ± 0.43
352.59 K, 14000 kPa, x2 = 0.199 | 987.44 ± 0.43
352.59 K, 15014 kPa, x2 = 0.199 | 988.92 ± 0.43
352.59 K, 15934 kPa, x2 = 0.199 | 990.14 ± 0.43
352.59 K, 17055 kPa, x2 = 0.199 | 991.66 ± 0.43
352.59 K, 17954 kPa, x2 = 0.199 | 992.83 ± 0.43
352.59 K, 19034 kPa, x2 = 0.199 | 994.28 ± 0.43
352.59 K, 20005 kPa, x2 = 0.199 | 995.52 ± 0.43
352.67 K, 1064 kPa, x2 = 0 | 992.39 ± 0.44
352.67 K, 2003 kPa, x2 = 0 | 993.54 ± 0.44
352.67 K, 3024 kPa, x2 = 0 | 994.79 ± 0.44
352.67 K, 4003 kPa, x2 = 0 | 995.98 ± 0.44
352.67 K, 5048 kPa, x2 = 0 | 997.22 ± 0.43
352.67 K, 6013 kPa, x2 = 0 | 998.36 ± 0.43
352.67 K, 7013 kPa, x2 = 0 | 999.51 ± 0.43
352.67 K, 8050 kPa, x2 = 0 | 1000.73 ± 0.43
352.67 K, 9018 kPa, x2 = 0 | 1001.82 ± 0.43
352.67 K, 10003 kPa, x2 = 0 | 1002.93 ± 0.43
352.67 K, 11003 kPa, x2 = 0 | 1004.07 ± 0.43
352.67 K, 12004 kPa, x2 = 0 | 1005.16 ± 0.43
352.67 K, 12998 kPa, x2 = 0 | 1006.25 ± 0.44
352.67 K, 14005 kPa, x2 = 0 | 1007.34 ± 0.44
352.67 K, 15038 kPa, x2 = 0 | 1008.46 ± 0.44
352.67 K, 16006 kPa, x2 = 0 | 1009.49 ± 0.44
352.67 K, 17027 kPa, x2 = 0 | 1010.58 ± 0.44
352.67 K, 18001 kPa, x2 = 0 | 1011.6 ± 0.44
352.67 K, 19031 kPa, x2 = 0 | 1012.65 ± 0.44
352.67 K, 20017 kPa, x2 = 0 | 1013.74 ± 0.44
352.85 K, 7014 kPa, x2 = 0.3818 | 941.65 ± 0.43
352.85 K, 8124 kPa, x2 = 0.3818 | 944.24 ± 0.43
352.85 K, 9071 kPa, x2 = 0.3818 | 946.38 ± 0.43
352.85 K, 10020 kPa, x2 = 0.3818 | 948.55 ± 0.43
352.85 K, 11000 kPa, x2 = 0.3818 | 950.66 ± 0.43
352.85 K, 12010 kPa, x2 = 0.3818 | 952.84 ± 0.43
352.85 K, 13005 kPa, x2 = 0.3818 | 954.93 ± 0.43
352.85 K, 14021 kPa, x2 = 0.3818 | 956.99 ± 0.43
352.85 K, 15021 kPa, x2 = 0.3818 | 958.98 ± 0.43
352.85 K, 16002 kPa, x2 = 0.3818 | 960.92 ± 0.43
352.85 K, 17007 kPa, x2 = 0.3818 | 962.89 ± 0.43
352.85 K, 18002 kPa, x2 = 0.3818 | 964.77 ± 0.43
352.85 K, 19018 kPa, x2 = 0.3818 | 966.66 ± 0.43
353.15 K, 101 kPa, x2 = 0 | 989.76 ± 0.44
362.38 K, 5067 kPa, x2 = 0.199 | 959.54 ± 0.43
362.38 K, 6020 kPa, x2 = 0.199 | 961.18 ± 0.43
362.38 K, 7006 kPa, x2 = 0.199 | 962.87 ± 0.43
362.38 K, 8052 kPa, x2 = 0.199 | 964.61 ± 0.44
362.38 K, 9004 kPa, x2 = 0.199 | 966.16 ± 0.44
362.38 K, 9993 kPa, x2 = 0.199 | 967.76 ± 0.44
362.38 K, 11055 kPa, x2 = 0.199 | 969.42 ± 0.43
362.38 K, 12043 kPa, x2 = 0.199 | 970.93 ± 0.43
362.38 K, 13005 kPa, x2 = 0.199 | 972.44 ± 0.43
362.38 K, 14008 kPa, x2 = 0.199 | 973.98 ± 0.43
362.38 K, 14980 kPa, x2 = 0.199 | 975.41 ± 0.43
362.38 K, 16011 kPa, x2 = 0.199 | 976.94 ± 0.43
362.38 K, 17005 kPa, x2 = 0.199 | 978.39 ± 0.43
362.38 K, 18009 kPa, x2 = 0.199 | 979.82 ± 0.43
362.38 K, 19011 kPa, x2 = 0.199 | 981.22 ± 0.43
362.38 K, 20040 kPa, x2 = 0.199 | 982.7 ± 0.43
362.51 K, 1007 kPa, x2 = 0 | 979.8 ± 0.44
362.51 K, 2022 kPa, x2 = 0 | 981.13 ± 0.44
362.51 K, 3029 kPa, x2 = 0 | 982.49 ± 0.44
362.51 K, 4004 kPa, x2 = 0 | 983.74 ± 0.44
362.51 K, 5006 kPa, x2 = 0 | 985.01 ± 0.44
362.51 K, 6003 kPa, x2 = 0 | 986.27 ± 0.43
362.51 K, 6999 kPa, x2 = 0 | 987.5 ± 0.43
362.51 K, 7993 kPa, x2 = 0 | 988.73 ± 0.43
362.51 K, 9007 kPa, x2 = 0 | 989.99 ± 0.43
362.51 K, 9993 kPa, x2 = 0 | 991.16 ± 0.43
362.51 K, 10997 kPa, x2 = 0 | 992.36 ± 0.43
362.51 K, 11993 kPa, x2 = 0 | 993.56 ± 0.43
362.51 K, 12838 kPa, x2 = 0 | 994.53 ± 0.43
362.51 K, 14038 kPa, x2 = 0 | 995.94 ± 0.43
362.51 K, 15044 kPa, x2 = 0 | 997.1 ± 0.43
362.51 K, 16029 kPa, x2 = 0 | 998.18 ± 0.43
362.51 K, 17006 kPa, x2 = 0 | 999.27 ± 0.43
362.51 K, 18016 kPa, x2 = 0 | 1000.4 ± 0.43
362.51 K, 18987 kPa, x2 = 0 | 1001.47 ± 0.43
362.73 K, 8081 kPa, x2 = 0.3818 | 925.8 ± 0.44
362.73 K, 9009 kPa, x2 = 0.3818 | 928.21 ± 0.43
362.73 K, 10010 kPa, x2 = 0.3818 | 930.72 ± 0.43
362.73 K, 11009 kPa, x2 = 0.3818 | 933.15 ± 0.43
362.73 K, 11996 kPa, x2 = 0.3818 | 935.49 ± 0.43
362.73 K, 13008 kPa, x2 = 0.3818 | 937.87 ± 0.43
362.73 K, 14001 kPa, x2 = 0.3818 | 940.11 ± 0.43
362.73 K, 15006 kPa, x2 = 0.3818 | 942.32 ± 0.43
362.73 K, 16002 kPa, x2 = 0.3818 | 944.47 ± 0.43
362.73 K, 17016 kPa, x2 = 0.3818 | 946.62 ± 0.43
362.73 K, 18023 kPa, x2 = 0.3818 | 948.72 ± 0.43
362.73 K, 19014 kPa, x2 = 0.3818 | 950.73 ± 0.43
